Where two headings read alike, the source gives them in different places.
Tests used:
[1] = biological target: T1, GppNp-loaded HIS-KRAS (G12D, aa 1-169) / cRAF RBD (Homo sapiens, UniProt P01116, G12D); experiment: GTP-KRAS and cRAF interaction assay; format: binding; details: HTRF, 2 hours at 25° C.
T1 construct: GppNp-loaded HIS-KRAS (G12D, aa 1-169)
Protocol: 2. GTP-KRAS and cRAF Interaction Assay
GppNp-loaded HIS-KRAS (G12D, aa 1-169) was pre-incubated with a compound in the presence of 200 µM GTP in a 384-well plate (Greiner) for 15 min, then cRAF RBD (GST tag, aa 50-132, CreativeBioMart), MAb Anti GST-d2 (Cisbio) and MAb Anti 6HIS-Tb cryptate Gold (Cisbio) were added to the assay wells (Final concentration: 2.0 nM GppNp-loaded HIS-KRAS (G12D), 100 μM GTP, 35 nM cRAF RBD, 1 μg/mL MAb Anti GST-d2, 52.5 ng/mL MAb Anti 6HIS-Tb cryptate Gold) and incubated for 2 hours at 25° C. Wells containing same percent of DMSO served as vehicle control, and wells without KRAS served as low control. HTRF signals were read on Tecan Spark multimode microplate reader and HTRF ratios were calculated under manufacturer's instructions. The percent of activation of compounds treated wells were normalized between vehicle control and low control (% Activation=(HTRF ratioCompound treated−HTRF ratioLow control)/(HTRF ratioVehicle control−HTRF ratioLow control)*100). Then the data were analyzed either by fitting a 4-parameter logistic model or by Excel to calculate IC50 values.

AGS = experiment: Cell growth inhibition assay (AGS); format: cell-based; details: 6 days incubation, CellTiter-Glo
Protocol: (§1) 4. Cell Growth Inhibition Assay
AGS cultured in F12K medium (Gibco) containing 10% fetal bovine serum (Gibco). Cells in culture medium were plated in 96-well plates at a concentration of 500 cells/well ([…]) and allowed to attach overnight.
(§2) The next day, compounds were diluted in culture medium and added to the plates. After 6 days incubation in a 37° C./5% CO2 cell incubator, the cell viability was detected by CellTiter-Glo® Luminescent Cell Viability Assay kit (Promega). Luminescent signals were read on Tecan Spark multimode microplate reader and analyzed using a 4-parameter logistic model to calculate IC50 values.

[2] = tested on: AGS cells expressing KRAS G12D; experiment: Phospho-ERK1/2(THR202/TYR204) HTRF assay; format: cell-based; details: 2 hours incubation, read-out: AGS p-ERK IC50
Protocol: AGS cells expressing KRAS G12D were cultured in F12K medium (Gibco) containing 10% fetal bovine serum (Gibco). The AGS cells in culture medium were seeded in 96-well plates at a concentration of 40,000 cells/well and then put in a 37° C./5% CO2 cell incubator to incubate overnight. The next day, culture medium was removed and the compound diluted in assay medium (F12K, 0.1% FBS) was added in each well. After 2 hours incubation in a 37° C./5% CO2 cell incubator, the assay medium in 96-well plates was removed, then 50 μL of 1× blocking reagent-supplemented lysis buffer (Cisbio) was added and the plates were incubated at 25° C. for 45 min with shaking. 10 μL of cell lysates from the 96-well plates were transferred to a 384-well plate (Greiner) containing 2.5 μL/well HTRF® pre-mixed antibodies (Cisbio 64AERPEH). Incubate 4 hours at 25° C. and then read HTRF signals on Tecan Spark multimode microplate reader. The data were analyzed using a 4-parameter logistic model to calculate IC50 values.

[3] = biological target: T2, GDP-loaded HIS-KRAS (G12D, aa 1-169) (Homo sapiens, UniProt P01116, G12D); experiment: SOS1 catalyzed nucleotide exchange assay; format: biochemical; details: SOS1 ExD, TR-FRET, 4 hours at 25° C.
T2 construct: GDP-loaded HIS-KRAS (G12D, aa 1-169)
Protocol: 1. SOS1 Catalyzed Nucleotide Exchange Assay
GDP-loaded HIS-KRAS (G12D, aa 1-169) was pre-incubated with a compound in the presence of 10 nM GDP in a 384-well plate (Greiner) for 15 min, then purified SOS1 ExD (Flag tag, aa 564-1049), BODIPY™ FL GTP (Invitrogen) and MAb (monoclonal antibody) Anti 6HIS-Tb cryptate Gold (Cisbio) were added to the assay wells (Final concentration: 1.5 nM GDP-loaded HIS-KRAS (G12D), 5 nM GDP, 0.5 μM SOS1 ExD, 80 nM BODIPY™ FL GTP, 52.5 ng/mL MAb Anti 6HIS-Tb cryptate Gold) and incubated for 4 hours at 25° C. Wells containing same percent of DMSO served as vehicle control, and wells without KRAS served as low control. TR-FRET signals were read on Tecan Spark multimode microplate reader. The parameters were F486: Excitation 340 nm, Emission 486 nm, Lag time 100 μs, Integration time 200 μs; F515: Excitation 340 nm, Emission 515 nm, Lag time 100 μs, Integration time 200 μs. TR-FRET ratios for each individual wells were calculated by equation: TR-FRET ratio=(Signal F515/Signal F486)*10000. The percent of activation of compounds treated wells were normalized between vehicle control and low control (% Activation=(TR-FRET ratioCompound treated−TR-FRET ratioLow control)/(TR-FRET ratioVehicle control−TR-FRET ratioLow control)*100%). Then the data were analyzed either by fitting a 4-parameter logistic model or by Excel to calculate IC50 values.

AsPC-1 = experiment: Cell growth inhibition assay (AsPC-1); format: cell-based; details: AsPC-1, 6 days incubation, CellTiter-Glo
Protocol: as §1
AsPC-1 cultured in RPMI-1640 medium (Gibco) containing 10% fetal bovine serum (Gibco). Cells in culture medium were plated in 96-well plates at a concentration of 1000 cells/well ([…]) and allowed to attach overnight.
as §2

T1 sequence (P01116 1-169 isoform P01116-2 G12D): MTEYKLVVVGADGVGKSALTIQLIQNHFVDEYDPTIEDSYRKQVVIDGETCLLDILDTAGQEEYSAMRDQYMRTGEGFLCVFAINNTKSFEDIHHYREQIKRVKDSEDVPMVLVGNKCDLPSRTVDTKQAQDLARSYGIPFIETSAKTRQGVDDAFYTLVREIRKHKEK
T2 sequence (P01116 1-169 isoform P01116-2 G12D): as above

| SMILES | IC50 [1] [nM] | IC50 (AGS; Homo sapiens, 144 h) [nM] | IC50 ([2]; Homo sapiens) [nM] | IC50 [3] [nM] | IC50 (AsPC-1; Homo sapiens, ASPC1, 144 h) [nM] | IC50 (AGS) [nM] | IC50 [2] [nM] | IC50 (AsPC-1) [nM] |
| --- | --- | --- | --- | --- | --- | --- | --- | --- |
| C#Cc1c(F)ccc2cc(O)cc(-c3c(Cl)cc4c(C5CC6CCC(C5)N6)nc(OC[C@@]56CCCN5C[C@H](F)C6)nc4c3F)c12 (stereo partly shown) [Compound 100] | 55 | 5.68 | 1.71 | 5.93 | 33 | – | – | – |
| C#Cc1cccc2cc(O)cc(-c3ccc4c(N5CC6CCC(C5)N6)nc(OCC5(CN6CCSCC6)CC5)nc4c3F)c12 [Compound 78] | 99.8 | 4.04 | 31.6 | 8.8 | 30.3 | – | – | – |
| C#Cc1cccc2cc(O)cc(-c3cc4nc(OCC5(CN6CCOCC6)CC5)nc(N5CC6CCC(C5)N6)c4cc3CC)c12 [Compound 109] | 140 | 28.3 | 51.9 | 48.5 | 86.9 | – | – | – |
| C#Cc1cccc2cc(O)cc(-c3c(F)cc4c(N5CC6CCC(C5)N6)nc(OCC5(CN6CCOCC6)CC5)nc4c3F)c12 (single isomer, unassigned) [Compound 41B] | 50.4 | – | – | 6.9 | – | 0.671 | 1.01 | 3.84 |
| Cc1ccc2cc(O)cc(-c3ccc4c(N5CC6CCC(C5)N6)nc(OCC5(CN6CCOCC6)CC5)nc4c3F)c2c1 [Compound 64] | 329 | – | – | 45.4 | – | 73 | 61.8 | 178 |
| C#Cc1c(F)ccc2cc(O)cc(-c3ccc4c(N5CC6CCC(C5)N6)nc(OCC5(CN6CCC(C(=O)O)CC6)CC5)nc4c3F)c12 [Compound 77] | 74.1 | 1180 | 173 | 5.11 | > 10000 | – | – | – |
| C#Cc1c(Cl)ccc2cc(O)cc(-c3ccc4c(N5CC6CCC(C5)N6)nc(OCC5(CN6CCOCC6)CC5)nc4c3F)c12 [Compound 127] | 15.7 | 1.82 | 2.61 | 1.18 | 24 | – | – | – |
| C#Cc1cccc2cc(O)cc(-c3cc4nc(OCC5(CN6CCOCC6)CC5)nc(N5CC6CCC(C5)N6)c4cc3C)c12 [Compound 118] | 165 | 31.1 | 64 | 19.2 | 145 | – | – | – |
| C#Cc1cccc2cc(O)cc(-c3c(C4CC4)cc4c(N5CC6CCC(C5)N6)nc(OCC5(CN6CCOCC6)CC5)nc4c3F)c12 (single isomer, unassigned) [Compound 38B] | 13.2 | – | – | 0.727 | – | 10.5 | 12.4 | 158 |
| C#Cc1cccc2cc(O)cc(-c3ccc4c(N5CC6CCC(C5)N6)nc(OCC5(CN6CCOC[C@H]6C)CC5)nc4c3F)c12 [Compound 115] | 121 | 4.23 | 4.23 | 28.2 | 7.52 | – | – | – |
| C#Cc1c(F)ccc2cc(O)cc(-c3c(C4CC4)cc4c(N5CC6CCC(C5)N6)nc(OC[C@@]56CCCN5C[C@H](F)C6)nc4c3F)c12 [Compound 71] | 73.2 | 205 | 9.31 | 60 | 723 | – | – | – |
| C#Cc1c(F)ccc2cc(O)cc(-c3c(C(C)C)cc4c(N5CC6CCC(C5)N6)nc(OCC5(CN6CCOCC6)CC5)nc4c3F)c12 [Compound 106] | 1.3 | 1.8 | 8.6 | 0.332 | 12.8 | – | – | – |
| C#Cc1c(Cl)ccc2cc(O)cc(-c3c(F)cc4c(N5CC6CCC(C5)N6)nc(OCC5(CN6CCOCC6)CC5)nc4c3F)c12 [Compound 126] | 24.7 | 0.486 | 20.8 | 2.07 | 14.3 | – | – | – |
| C#Cc1cccc2cc(O)cc(-c3c(SC(F)(F)F)cc4c(N5CC6CCC(C5)N6)nc(OCC5(CN6CCOCC6)CC5)nc4c3F)c12 (single isomer, unassigned) [Compound 59B] | 6.28 | – | – | 1.65 | – | 6 | 10.8 | 5.54 |
| C#Cc1cccc2cc(O)cc(-c3c(F)cc4c(N5CC6CCC(C5)N6)nc(OCC5(CN6CCOCC6)CC5)nc4c3F)c12 [Compound 41] | 211 | 6.96 | 2.63 | 9.17 | 18.7 | – | – | – |
| C#Cc1cccc2cc(O)cc(-c3c(CC)cc4c(N5CC6CCC(C5)N6)nc(OCC5(CN6CCOCC6)CC5)nc4c3F)c12 [Compound 49] | 26.3 | 10.7 | 16.8 | 3.51 | 88 | – | – | – |
| C#Cc1c(F)ccc2cc(O)cc(-c3ccc4c(N5CC6CCC(C5)N6)nc(OCC5(CN6CCCC(F)C6)CC5)nc4c3F)c12 (stereo not shown) [Compound 74] | 39.8 | 4.41 | 12.4 | 10 | 21.3 | – | – | – |
| C#Cc1cccc2cc(O)cc(-c3ccc4c(N5CC6CCC(C5)N6)nc(OCC5(CN(C)CCO)CC5)nc4c3F)c12 [Compound 86] | 97 | 60.3 | 7.4 | 20.9 | 528 | – | – | – |
| C#Cc1cccc2cc(O)cc(-c3ccc4c(N5CC6CCC(C5)N6)nc(OCC5(CN6CCCCC6)CC5)nc4c3F)c12 [Compound 131] | 90.4 | 13.4 | 9.86 | 9.1 | 55 | – | – | – |
| C#Cc1c(OC)ccc2cc(O)cc(-c3ccc4c(N5CC6CCC(C5)N6)nc(OCC5(CN6CCOCC6)CC5)nc4c3F)c12 [Compound 94] | 2520 | 333 | 28.5 | 5.34 | 1150 | – | – | – |
| C#Cc1cccc2cc(O)cc(-c3cc4nc(OC[C@@]56CCCN5C[C@H](F)C6)nc(N5CC6CCC(C5)N6)c4cc3F)c12 [Compound 79] | 130 | 7.75 | 6.66 | 4.81 | 109 | – | – | – |
| C#Cc1cccc2cc(O)cc(-c3cc4nc(OCC5(CN6CCOCC6)CC5)nc(N5CC6CCC(C5)N6)c4cc3OC)c12 [Compound 120] | 307 | 28.1 | 19.9 | 37.4 | 180 | – | – | – |
| C#Cc1cccc2cc(O)cc(-c3c(Cl)cc4c(N5CC6CCC(C5)N6)nc(OCC5(CN6CCOCC6)CC5)nc4c3Cl)c12 (single isomer, unassigned) [Compound 107B] | 399 | 150 | 57.6 | 3.16 | 395 | – | – | – |
